In patent US20260070924A1, “INDAZOLE MACROCYCLES AND THEIR USE” (BLOSSOMHILL THERAPEUTICS, INC., priority 2022, published 2026):

What was measured:
Assay in all cases: Cell proliferation panel (CellTiter-Glo 2.0, 5 days)
Assay type in all cases: cell-based
Ovcar3 = settings: Ovarian adenocarcinoma
Method: (§1) Cell proliferation assay was carried out in a panel of 108 cell lines. 1000 (attached cells) or 3000 (suspension cells) cells/100 μl per well were seeded in 96 well black plate with a clear bottom (Corning #3904). Compounds were added using Tecan D300e Digital Dispenser in 1:3 titration for 9 doses. Plates were incubated for 5 days at 37° C. and 5% CO2. Cell proliferation was measured using CellTiter-Glo 2.0 luciferase-based ATP detection assay (Promega, Madison, WI) at 50 μl per well following the manufacturer's protocol. Plates were then read on a TECAN Sparks multimode microplate reader. Data was analyzed using GraphPad Prism 9 (GraphPad Software, San Diego, CA) to obtain IC50 values. IC50 values were determined using Prism software (GraphPad Software, San Diego, CA).

H23 = settings: Lung adenocarcinoma NSCLC
Method: as §1

H2122 = settings: Lung adenocarcinoma NSCLC
Method: as §1

HPAC = settings: Pancreatic carcinoma
Method: as §1

H727 = settings: Bronchial lung carcinoid
Method: as §1

JPC3 = settings: Lung carcinoma
Method: as §1

SW480 = settings: Colorectal adenocarcinoma
Method: as §1

H1573 = settings: Lung adenocarcinoma NSCLC
Method: as §1

HCC1806 = settings: Breast carcinoma, TNBC
Method: as §1

SK-LU-1 = settings: Lung adenocarcinoma NSCLC
Method: as §1

A549 = settings: Lung carcinoma, NSCLC
Method: as §1

PANC1 = settings: Pancreatic ductal epithelioid carcinoma
Method: as §1

SK-BR-3 = settings: Breast adenocarcinoma
Method: as §1

769-P = settings: Renal cell adenocarcinoma
Method: as §1

CHP-212 = settings: Neuroblastoma
Method: as §1

JeKo-1 = settings: Mantle cell lymphoma
Method: as §1

MOLM13 = settings: Acute myeloid leukemia
Method: as §1

KASUMI-4 = settings: Chronic Myeloblastic Leukemia
Method: as §1

A-498 = settings: Kidney carcinoma
Method: as §1

LNCaP = settings: Prostate carcinoma
Method: as §1

TOV-112D = settings: Endometrioid ovarian cancer
Method: as §1

H526 = settings: Small cell lung cancer
Method: as §1

22RV1 = settings: Prostate carcinoma
Method: as §1

MC38 = settings: Murine colon adenocarcinoma
Method: as §1

UCSD-AML1 = settings: Acute myeloid leukemia
Method: as §1

Hs746T = settings: Gastric carcinoma
Method: as §1

Kelly = settings: Neuroblastoma
Method: as §1

H1930 = settings: Lung carcinoma small cell lung cancer
Method: as §1

T47D = settings: Mammary gland ductal carcinoma
Method: as §1

KASUMI-3 = settings: Acute myeloblastic leukemia
Method: as §1

HCC1419 = test system: HCC1419
Method: as §1

Caki-2 = settings: Kidney clear cell carcinoma
Method: as §1

H1688 = settings: Small cell lung carcinoma
Method: as §1

H2291 = settings: Lung adenocarcinoma NSCLC
Method: as §1

SW620 = settings: Colorectal adenocarcinoma
Method: as §1

COR-L23 = settings: Large cell lung carcinoma
Method: as §1

PC-9 = settings: Lung adenocarcinoma NSCLC
Method: as §1

H358 = settings: Bronchioalveolar carcinoma NSCLC
Method: as §1

SNU-16 = settings: Gastric carcinoma
Method: as §1

HCC1569 = settings: Mammary gland metaplastic carcinoma
Method: as §1

KCL22R = settings: Chronic Myelogenous Leukemia
Method: as §1

TF-1 = settings: Erythroleukemia
Method: as §1

786-O = settings: Renal cell adenocarcinoma
Method: as §1

BT-474 = settings: Mammary gland ductal carcinoma
Method: as §1

CAPAN2 = settings: Pancreatic adenocarcinoma
Method: as §1

PANC0203 = settings: Pancreatic adenocarcinoma
Method: as §1

IC50 (Ovcar3): 70.7 nM
IC50 (H2122): 73.7 nM
IC50 (SW480): 90.5 nM
IC50 (H1573): 80.6 nM
IC50 (HCC1806): 85.9 nM
IC50 (SK-LU-1): 166 nM
IC50 (A549): 67.7 nM
IC50 (PANC1): 213 nM
IC50 (SK-BR-3): 38.8 nM
IC50 (MOLM13): 2.39 nM
IC50 (LNCaP): 136 nM
IC50 (H526): 75.5 nM
IC50 (22RV1): 73.2 nM
IC50 (H1930): 181 nM
IC50 (T47D): 114 nM
IC50 (HCC1419): 83.8 nM
IC50 (H1688): 116 nM
IC50 (H2291): 362 nM
IC50 (SW620): 76.5 nM
IC50 (PC-9): 164 nM
IC50 (H358): 148 nM
IC50 (SNU-16): 90.5 nM
IC50 (HCC1569): 151 nM
IC50 (786-O): 138 nM
IC50 (BT-474): 278 nM
IC50 (PANC0203): 126 nM
Compound: CCc1nn(C)c2c1/C=C/c1n[nH]c3ccc(cc13)-c1cnn(C)c1OCCN(C)C2=O [Ex. 6, (17E)-16-ethyl-8,12,14-trimethyl-2,11,12,14-tetrahydro-8H-3,5-ethenotripyrazolo[3,4-f:3′,4′-j:4″,3″-n][1,4]oxazacyclopentadecin-13(10H)-one]
IC50 (H23): 88.8 nM
IC50 (HPAC): 79.1 nM
IC50 (H727): 100 nM
IC50 (JPC3): 171 nM
IC50 (769-P): 91.6 nM
IC50 (CHP-212): 27.4 nM
IC50 (JeKo-1): 20.6 nM
IC50 (KASUMI-4): 11.2 nM
IC50 (A-498): 169 nM
IC50 (TOV-112D): 62.5 nM
IC50 (MC38): 217 nM
IC50 (UCSD-AML1): 15.5 nM
IC50 (Hs746T): 183 nM
IC50 (Kelly): 51.5 nM
IC50 (KASUMI-3): 43.3 nM
IC50 (Caki-2): 142 nM
IC50 (COR-L23): 98.4 nM
IC50 (KCL22R): 64.8 nM
IC50 (TF-1): 57.6 nM
IC50 (CAPAN2): 365 nM
